# Measurements: ChEMBL document CHEMBL1156502, “Stabilized immune modulatory RNA compounds as agonists of Toll-like receptors 7 and 8” (Proc Natl Acad Sci U S A, 2007)
# The source made the active and inactive calls. No cut-off for these calls is given here.
# What was measured:
# Mus musculus [1] = assay: Induction of IL12 secretion in sc dosed C57BL/6 mouse serum after 2 hrs by ELISA; type: functional, organism-based
# [2] = target: T1, Toll-like receptor 7 (Homo sapiens) (UniProt Q9NYK1); assay: Activation of human TLR7 expressed in HEK293 cells assessed as increase in NF-kappaB activation at 100 ug/ml by SEAP assay; type: cell-based
# T1 sequence (whole entry): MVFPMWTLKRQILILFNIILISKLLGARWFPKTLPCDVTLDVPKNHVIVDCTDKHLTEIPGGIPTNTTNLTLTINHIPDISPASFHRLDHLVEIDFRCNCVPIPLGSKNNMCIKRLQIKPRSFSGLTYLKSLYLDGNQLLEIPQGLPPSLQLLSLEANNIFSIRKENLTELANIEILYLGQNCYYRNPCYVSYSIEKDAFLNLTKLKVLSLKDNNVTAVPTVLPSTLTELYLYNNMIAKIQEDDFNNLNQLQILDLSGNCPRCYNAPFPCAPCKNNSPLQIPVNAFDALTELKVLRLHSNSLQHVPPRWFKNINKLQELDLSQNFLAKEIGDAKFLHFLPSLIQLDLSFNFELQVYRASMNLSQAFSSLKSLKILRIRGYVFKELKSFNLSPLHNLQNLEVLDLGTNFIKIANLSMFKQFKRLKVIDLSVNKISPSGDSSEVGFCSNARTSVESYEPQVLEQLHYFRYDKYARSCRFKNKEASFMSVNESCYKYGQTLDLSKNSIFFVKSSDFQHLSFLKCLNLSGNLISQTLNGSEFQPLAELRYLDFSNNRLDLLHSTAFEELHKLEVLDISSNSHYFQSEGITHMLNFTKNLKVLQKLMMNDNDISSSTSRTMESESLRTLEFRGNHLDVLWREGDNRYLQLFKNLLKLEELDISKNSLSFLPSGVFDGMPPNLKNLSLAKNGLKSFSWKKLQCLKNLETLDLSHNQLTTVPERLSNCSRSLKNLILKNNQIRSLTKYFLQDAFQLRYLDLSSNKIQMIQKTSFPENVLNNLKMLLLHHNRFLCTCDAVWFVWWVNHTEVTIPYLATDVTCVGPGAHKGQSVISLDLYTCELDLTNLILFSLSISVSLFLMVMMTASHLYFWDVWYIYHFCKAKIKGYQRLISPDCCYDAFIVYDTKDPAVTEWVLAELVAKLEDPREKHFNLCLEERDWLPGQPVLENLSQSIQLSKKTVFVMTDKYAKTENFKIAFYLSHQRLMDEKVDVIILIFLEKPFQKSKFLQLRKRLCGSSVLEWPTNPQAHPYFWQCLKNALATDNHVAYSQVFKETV
# Cynomolgus monkey [3] = assay: Increase in CD69 expression on CD3+ lymphocytes in cynomolgus monkey at 5 mg/kg, sc after 24 hrs by flow cytometry relative to control; type: functional, organism-based; parameters: dose 5 mg/kg; conditions: Macaca fascicularis
# [4] = target: T2, Toll-like receptor 8 (Homo sapiens) (UniProt Q9NR97); assay: Activation of human TLR8 expressed in HEK293 cells assessed as increase in NF-kappaB activation at 100 ug/ml by SEAP assay; type: cell-based
# T2 sequence (whole entry): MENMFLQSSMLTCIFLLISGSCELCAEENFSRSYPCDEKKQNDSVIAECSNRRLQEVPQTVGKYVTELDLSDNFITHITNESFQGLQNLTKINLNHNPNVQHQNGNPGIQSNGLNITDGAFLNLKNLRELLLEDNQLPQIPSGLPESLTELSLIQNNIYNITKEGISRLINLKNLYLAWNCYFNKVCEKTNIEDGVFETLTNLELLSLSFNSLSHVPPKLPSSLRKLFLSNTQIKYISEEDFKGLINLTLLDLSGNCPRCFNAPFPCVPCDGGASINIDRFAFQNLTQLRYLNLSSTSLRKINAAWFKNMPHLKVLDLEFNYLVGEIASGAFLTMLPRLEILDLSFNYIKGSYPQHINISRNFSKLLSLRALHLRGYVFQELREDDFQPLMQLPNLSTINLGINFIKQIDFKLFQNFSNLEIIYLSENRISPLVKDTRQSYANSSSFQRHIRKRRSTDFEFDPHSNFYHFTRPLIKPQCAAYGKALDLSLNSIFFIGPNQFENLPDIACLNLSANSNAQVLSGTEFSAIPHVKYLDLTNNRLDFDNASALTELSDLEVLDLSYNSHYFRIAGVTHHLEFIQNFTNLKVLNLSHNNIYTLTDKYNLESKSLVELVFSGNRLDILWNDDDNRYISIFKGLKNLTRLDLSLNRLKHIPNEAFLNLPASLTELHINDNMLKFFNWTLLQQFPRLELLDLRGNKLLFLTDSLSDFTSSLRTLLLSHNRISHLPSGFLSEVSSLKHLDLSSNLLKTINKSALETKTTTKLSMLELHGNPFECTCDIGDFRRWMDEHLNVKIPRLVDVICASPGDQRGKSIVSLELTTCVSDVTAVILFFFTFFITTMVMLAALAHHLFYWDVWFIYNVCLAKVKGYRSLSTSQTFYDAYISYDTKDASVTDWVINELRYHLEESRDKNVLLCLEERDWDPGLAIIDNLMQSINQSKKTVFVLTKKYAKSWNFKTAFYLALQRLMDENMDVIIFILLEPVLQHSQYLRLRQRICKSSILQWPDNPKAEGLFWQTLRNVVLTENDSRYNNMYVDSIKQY
# Mus musculus [5] = assay: Induction of IL12 secretion in C57BL/6 mouse plasma at 100 mg/kg, sc by Luminex Multiplex assay; type: functional, organism-based; parameters: dose 100 mg/kg
# Dendritic cell = assay: Induction of IFNalpha secretion in human plasmacytoid dendritic cells at 200 ug/ml after 24 hrs by Luminex Multiplex assay; type: functional
# Cynomolgus monkey [6] = assay: Increase in CD69 expression on CD16+ NK cells in cynomolgus monkey at 5 mg/kg, sc after 24 hrs by flow cytometry relative to control; type: functional, organism-based; parameters: dose 5 mg/kg; conditions: Macaca fascicularis
# Mus musculus [7] = assay: Induction of IP10 secretion in C57BL/6 mouse plasma at 100 mg/kg, sc by Luminex Multiplex assay; type: functional, organism-based; parameters: dose 100 mg/kg
# [8] = Stability in 1% human serum assessed as full length product after 10 mins; type: ADME, cell-free; conditions: read-out: Stability
# Cynomolgus monkey [9] = assay: Elevation of IP10 in cynomolgus monkey plasma at 5 mg/kg, sc after 24 hrs; type: functional, organism-based; parameters: dose 5 mg/kg; conditions: Macaca fascicularis
# Mus musculus [10] = assay: Induction of cytokine secretion in C57BL/6 mouse plasma at 100 mg/kg, sc by Luminex Multiplex assay; type: functional, organism-based; parameters: dose 100 mg/kg
# Mus musculus [11] = assay: Induction of MCP1 secretion in C57BL/6 mouse plasma at 100 mg/kg, sc by Luminex Multiplex assay; type: functional, organism-based; parameters: dose 100 mg/kg
# Cynomolgus monkey [12] = assay: Increase in CD69 expression on CD14+ monocytes in cynomolgus monkey at 5 mg/kg, sc after 24 hrs by flow cytometry relative to control; type: functional, organism-based; parameters: dose 5 mg/kg; conditions: Macaca fascicularis
# Cynomolgus monkey [13] = assay: Induction of immune response in cynomolgus monkey assessed as increase in number of peripheral blood neutrophils at 5 mg/kg, sc within 24 hrs; type: functional, organism-based; parameters: dose 5 mg/kg; conditions: Macaca fascicularis
# Cynomolgus monkey [14] = assay: Induction of immune response in cynomolgus monkey assessed as increase in number of peripheral blood monocytes at 5 mg/kg, sc within 24 hrs; type: functional, organism-based; parameters: dose 5 mg/kg; conditions: Macaca fascicularis
# spleen [15] = assay: Induction of cytokine secretion in C57BL/6 mouse spleen cells at 100 ug/ml after 24 hrs by Luminex Multiplex assay; type: functional, cell-based
# Cynomolgus monkey [16] = assay: Elevation of IFNalpha in cynomolgus monkey plasma at 5 mg/kg, sc after 24 hrs; type: functional, organism-based; parameters: dose 5 mg/kg; conditions: Macaca fascicularis
# spleen [17] = assay: Induction of chemokine secretion in C57BL/6 mouse spleen cells 100 ug/ml after 24 hrs by Luminex Multiplex assay; type: functional, cell-based
# Mus musculus [18] = assay: Induction of IL10 secretion in C57BL/6 mouse plasma at 100 mg/kg, sc by Luminex Multiplex assay; type: functional, organism-based; parameters: dose 100 mg/kg
# Mus musculus [19] = assay: Induction of chemokine secretion in C57BL/6 mouse plasma at 100 mg/kg, sc by Luminex Multiplex assay; type: functional, organism-based; parameters: dose 100 mg/kg
# Mus musculus [20] = assay: Induction of IFN-gamma-induced monoamine secretion in C57BL/6 mouse plasma at 100 mg/kg, sc by Luminex Multiplex assay; type: functional, organism-based; parameters: dose 100 mg/kg
compound,measurement,setting,value
Nc1ccn([C@@H]2O[C@H](COP(O)(=S)O[C@H]3[C@@H](O)[C@H](n4ccc(=O)[nH]c4=O)O[C@@H]3COP(O)(=S)O[C@H]3[C@@H](O)[C@H](n4ccc(=O)[nH]c4=O)O[C@@H]3COP(O)(=S)O[C@H]3[C@@H](O)[C@H](n4ccc(N)nc4=O)O[C@@H]3COP(O)(=S)O[C@H]3[C@@H](O)[C@H](n4ccc5c(=O)[nH]c(N)nc54)O[C@@H]3COP(O)(=S)O[C@H]3[C@@H](O)[C@H](n4ccc(=O)[nH]c4=O)O[C@@H]3COP(O)(=S)O[C@H]3[C@@H](O)[C@H](n4ccc(N)nc4=O)O[C@@H]3COP(O)(=S)O[C@H]3[C@@H](O)[C@H](n4ccc5c(=O)[nH]c(N)nc54)O[C@@H]3COP(O)(=S)O[C@H]3[C@@H](O)[C@H](n4ccc(=O)[nH]c4=O)O[C@@H]3CO)[C@@H](OP(O)(=S)OC[C@H]3O[C@@H](n4ccc(=O)[nH]c4=O)[C@H](O)[C@@H]3OP(O)(=S)OC[C@H]3O[C@@H](n4ccc5c(=O)[nH]c(N)nc54)[C@H](O)[C@@H]3OP(O)(=S)OCC(O)COP(O)(=S)O[C@H]3[C@@H](O)[C@H](n4ccc5c(=O)[nH]c(N)nc54)O[C@@H]3COP(O)(=S)O[C@H]3[C@@H](O)[C@H](n4ccc(=O)[nH]c4=O)O[C@@H]3COP(O)(=S)O[C@H]3[C@@H](O)[C@H](n4ccc(N)nc4=O)O[C@@H]3COP(O)(=S)O[C@H]3[C@@H](O)[C@H](n4ccc(=O)[nH]c4=O)O[C@@H]3COP(O)(=S)O[C@H]3[C@@H](O)[C@H](n4ccc(=O)[nH]c4=O)O[C@@H]3COP(O)(=S)O[C@H]3[C@@H](O)[C@H](n4ccc(N)nc4=O)O[C@@H]3COP(O)(=S)O[C@H]3[C@@H](O)[C@H](n4ccc5c(=O)[nH]c(N)nc54)O[C@@H]3COP(O)(=S)O[C@H]3[C@@H](O)[C@H](n4ccc(=O)[nH]c4=O)O[C@@H]3COP(O)(=S)O[C@H]3[C@@H](O)[C@H](n4ccc(N)nc4=O)O[C@@H]3COP(O)(=S)O[C@H]3[C@@H](O)[C@H](n4ccc5c(=O)[nH]c(N)nc54)O[C@@H]3COP(O)(=S)O[C@H]3[C@@H](O)[C@H](n4ccc(=O)[nH]c4=O)O[C@@H]3CO)[C@H]2O)c(=O)n1 (stereo partly specified),Activity,Mus musculus [1],Dose-dependent effect
same,Activity,[2],Active
same,Activity,Cynomolgus monkey [3],Active
same,Activity,[4],Active
same,Activity,Mus musculus [5],Active
same,Activity,Dendritic cell,Active
same,Activity,Cynomolgus monkey [6],Active
same,Activity,Mus musculus [7],Active
same,remaining at 10 min,[8],57%
same,Activity,Cynomolgus monkey [9],Active
same,Activity,Mus musculus [10],inactive
same,Activity,Mus musculus [11],Active
same,Activity,Cynomolgus monkey [12],Active
same,Activity,Cynomolgus monkey [13],Active
same,Activity,Cynomolgus monkey [14],Active
same,Activity,spleen [15],Dose-dependent effect
same,Activity,Cynomolgus monkey [16],Active
same,Activity,spleen [17],Dose-dependent effect
same,Activity,Mus musculus [18],Active
same,Activity,Mus musculus [19],inactive
same,Activity,Mus musculus [20],Active
